# Laboratory results reported in patent US10988477B2 (Merck Patent GmbH, priority 2018, dated 2021).
# Tests used:
# [1] = target: intracellular GCN2 (phosphorylation of the GCN2 substrate eIF2α) (Homo sapiens, UniProt Q9P2K8); test: GCN2 cellular inhibition assay (AlphaScreen SureFire P-eIF2α Ser51, borrelidin-treated U2OS cells); type: cell-based; conditions: compounds of Formula IV; biomarker assay, phosphorylated eIF2α Ser51 in borrelidin-treated U2OS cells
# How it was run: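 U2OS cells adhered overnight, then treated with compounds (4-fold serial dilutions from 40 μM final) plus borrelidin 10 μM final for 1 h at 37 °C. Lysate eIF2α Ser51 phosphorylation measured by AlphaScreen SureFire. Percent inhibition calculated relative to borrelidin-only wells.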
# [2] = target: GCN2 kinase (Homo sapiens, UniProt Q9P2K8); test: GCN2 enzyme inhibition assay (Transcreener ADP2 fluorescence polarization); type: biochemical; conditions: Enzyme activity for compounds of Formula IV; Ki(app), 280 μM ATP, 25° C.
# How it was run: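 Kinase activity is followed as ADP formation, measured by fluorescence polarization, using 4 nM enzyme with 280 μM ATP and 200 μM (RS)7 peptide at pH 7.5 and 25 °C for 1 h. Values come from a non-linear tight-binding fit.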
# Sequence of intracellular GCN2 (phosphorylation of the GCN2 substrate eIF2α) (Q9P2K8 whole entry): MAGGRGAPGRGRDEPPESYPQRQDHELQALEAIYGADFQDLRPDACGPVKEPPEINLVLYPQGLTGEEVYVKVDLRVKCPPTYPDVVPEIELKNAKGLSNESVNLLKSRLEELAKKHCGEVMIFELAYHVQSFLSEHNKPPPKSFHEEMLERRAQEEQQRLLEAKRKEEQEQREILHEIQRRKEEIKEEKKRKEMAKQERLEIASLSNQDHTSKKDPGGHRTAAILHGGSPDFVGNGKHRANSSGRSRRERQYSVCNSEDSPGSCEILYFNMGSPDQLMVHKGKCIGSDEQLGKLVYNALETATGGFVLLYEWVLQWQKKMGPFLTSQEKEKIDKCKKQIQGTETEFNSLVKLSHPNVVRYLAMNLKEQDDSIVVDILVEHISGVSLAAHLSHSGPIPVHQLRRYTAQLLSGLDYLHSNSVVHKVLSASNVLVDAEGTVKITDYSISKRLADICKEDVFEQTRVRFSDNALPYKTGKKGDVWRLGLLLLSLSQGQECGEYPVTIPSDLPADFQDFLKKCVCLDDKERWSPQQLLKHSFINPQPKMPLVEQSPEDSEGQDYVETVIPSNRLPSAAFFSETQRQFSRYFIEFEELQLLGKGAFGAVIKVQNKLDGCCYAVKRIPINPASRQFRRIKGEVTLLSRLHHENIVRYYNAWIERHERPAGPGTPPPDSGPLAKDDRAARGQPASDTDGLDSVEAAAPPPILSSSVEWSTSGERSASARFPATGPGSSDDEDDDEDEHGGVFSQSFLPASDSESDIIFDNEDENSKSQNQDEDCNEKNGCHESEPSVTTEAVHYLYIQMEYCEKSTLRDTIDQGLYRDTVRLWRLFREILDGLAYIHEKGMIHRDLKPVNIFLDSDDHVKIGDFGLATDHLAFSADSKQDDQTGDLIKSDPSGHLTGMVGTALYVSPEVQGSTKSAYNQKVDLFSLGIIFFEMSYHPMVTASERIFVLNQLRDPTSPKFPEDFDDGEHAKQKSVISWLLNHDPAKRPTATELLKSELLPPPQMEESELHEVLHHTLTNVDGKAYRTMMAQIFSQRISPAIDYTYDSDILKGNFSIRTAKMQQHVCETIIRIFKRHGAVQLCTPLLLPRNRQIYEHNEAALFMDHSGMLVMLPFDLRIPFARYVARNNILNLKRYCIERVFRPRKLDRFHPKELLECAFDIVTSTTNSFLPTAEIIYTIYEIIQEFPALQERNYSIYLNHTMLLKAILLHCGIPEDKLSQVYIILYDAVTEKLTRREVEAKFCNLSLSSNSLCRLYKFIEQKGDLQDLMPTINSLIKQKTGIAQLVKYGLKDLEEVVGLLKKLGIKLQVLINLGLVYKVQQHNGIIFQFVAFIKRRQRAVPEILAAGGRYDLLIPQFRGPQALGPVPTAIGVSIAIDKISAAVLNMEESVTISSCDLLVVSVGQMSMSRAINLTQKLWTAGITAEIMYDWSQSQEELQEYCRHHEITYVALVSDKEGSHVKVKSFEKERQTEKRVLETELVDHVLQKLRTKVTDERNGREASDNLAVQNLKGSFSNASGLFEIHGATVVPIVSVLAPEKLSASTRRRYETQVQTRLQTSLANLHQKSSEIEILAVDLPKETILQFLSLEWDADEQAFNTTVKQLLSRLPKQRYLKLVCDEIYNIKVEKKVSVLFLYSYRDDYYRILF
# Sequence of GCN2 kinase (Q9P2K8 whole entry): as above
IC50 [1],Ki [2],SMILES
500 to 5000 nM,10 to 100 nM,"FC(F)OC1CC(c2cn[nH]c2)CN(c2ccnc(-c3cnc4cnc(C(F)(F)F)cn34)n2)C1 (centres unmarked) [IV-472, 3-(4-(3-(Difluoromethoxy)-5-(1H-pyrazol-4-yl)piperidin-1-yl)pyrimidin-2-yl)-6-(trifluoromethyl)imidazo[1,2-a]pyrazine]"
> 5000 nM,100 to 1000 nM,"O=C1NCC2CN(c3ccnc(-c4cnc5cnc(C(F)(F)F)cn45)n3)CCN12 (centres unmarked) [IV-480, 7-(2-(6-(Trifluoromethyl)imidazo[1,2-a]pyrazin-3-yl)pyrimidin-4-yl)hexahydroimidazo[1,5-a]pyrazin-3(2H)-one]"
< 500 nM,< 10 nM,"CC1C(c2cn[nH]c2)CCCN1c1nccc(-c2cnc3cnc(C(F)(F)F)cn23)n1 (centres unmarked) [IV-485, 3-(2-(2-Methyl-3-(1H-pyrazol-4-yl)piperidin-1-yl)pyrimidin-4-yl)-6-(trifluoromethyl)imidazo[1,2-a]pyrazine]"
> 5000 nM,100 to 1000 nM,NCCC1CCCN(c2ccnc(-c3cnc4cnc(C(F)(F)F)cn34)n2)C1 (centres unmarked) [IV-488]
> 5000 nM,10 to 100 nM,"FC(F)(F)c1cn2c(-c3nccc(N4CCCC(n5ccnn5)C4)n3)cnc2cn1 (centres unmarked) [IV-493, 3-(4-(3-(1H-1,2,3-Triazol-1-yl)piperidin-1-yl)pyrimidin-2-yl)-6-(trifluoromethyl)imidazo[1,2-a]pyrazine]"
500 to 5000 nM,10 to 100 nM,"FC(F)(F)c1cn2c(-c3nccc(N4CCC(c5cn[nH]c5)C4)n3)cnc2cn1 (centres unmarked) [IV-494, 3-(4-(3-(1H-Pyrazol-4-yl)pyrrolidin-1-yl)pyrimidin-2-yl)-6-(trifluoromethyl)imidazo[1,2-a]pyrazine]"
> 5000 nM,100 to 1000 nM,"COCC1CCCN(c2ccnc(-c3cnc4cnc(C(F)(F)F)cn34)n2)C1 (centres unmarked) [IV-495, 3-(4-(3-(Methoxymethyl)piperidin-1-yl)pyrimidin-2-yl)-6-(trifluoromethyl)imidazo[1,2-a]pyrazine]"
< 500 nM,< 10 nM,"Fc1n[nH]cc1C1CCN(c2ccnc(-c3cnc4cnc(C(F)(F)F)cn34)n2)C1 (centres unmarked) [IV-524, 3-(4-(3-(3-Fluoro-1H-pyrazol-4-yl)pyrrolidin-1-yl)pyrimidin-2-yl)-6-(trifluoromethyl)imidazo[1,2-a]pyrazine]"
500 to 5000 nM,< 10 nM,"CC1CN(c2ccnc(-c3cnc4cnc(C(F)(F)F)cn34)n2)C(C)C(c2c[nH]cn2)O1 (centres unmarked) [IV-525, 2-(1H-Imidazol-4-yl)-3,6-dimethyl-4-(2-(6-(trifluoromethyl)imidazo[1,2-a]pyrazin-3-yl)pyrimidin-4-yl)morpholine]"
500 to 5000 nM,10 to 100 nM,"FC(F)(F)c1cn2c(-c3nccc(N4CCC=C(c5cnsc5)C4)n3)cnc2cn1 [IV-535, 4-(1-(2-(6-(Trifluoromethyl)imidazo[1,2-a]pyrazin-3-yl)pyrimidin-4-yl)-1,2,5,6-tetrahydropyridin-3-yl)isothiazole]"
500 to 5000 nM,< 10 nM,"N#Cc1n[nH]cc1C1=CCCN(c2ccnc(-c3cnc4cnc(C(F)(F)F)cn34)n2)C1 [IV-548, 4-(1-(2-(6-(Trifluoromethyl)imidazo[1,2-a]pyrazin-3-yl)pyrimidin-4-yl)-1,2,5,6-tetrahydropyridin-3-yl)-1H-pyrazole-3-carbonitrile]"
> 5000 nM,10 to 100 nM,"FC(F)(F)c1cn2c(-c3nccc(N4CC(c5cn[nH]c5)NC(C(F)(F)F)C4)n3)cnc2cn1 (centres unmarked) [IV-558, 3-(4-(3-(1H-Pyrazol-4-yl)-5-(trifluoromethyl)piperazin-1-yl)pyrimidin-2-yl)-6-(trifluoromethyl)imidazo[1,2-a]pyrazine]"
500 to 5000 nM,10 to 100 nM,"CC1CN(c2cc(Cl)nc(-c3cnc4cnc(C(F)(F)F)cn34)n2)C(C)C(c2cn[nH]c2)N1 (centres unmarked) [IV-567, 3-(4-Chloro-6-(2,5-dimethyl-3-(1H-pyrazol-4-yl)piperazin-1-yl)pyrimidin-2-yl)-6-(trifluoromethyl)imidazo[1,2-a]pyrazine]"
500 to 5000 nM,< 10 nM,"FC(F)(F)c1cn2c(-c3nccc(N4CCC(c5c[nH]nc5C(F)(F)F)C4)n3)cnc2cn1 (centres unmarked) [IV-572, 6-(Trifluoromethyl)-3-(4-(3-(3-(trifluoromethyl)-1H-pyrazol-4-yl)pyrrolidin-1-yl)pyrimidin-2-yl)imidazo[1,2-a]pyrazine]"
500 to 5000 nM,10 to 100 nM,"OCc1n[nH]cc1C1CCN(c2ccnc(-c3cnc4cnc(C(F)(F)F)cn34)n2)C1 (centres unmarked) [IV-573, (4-(1-(2-(6-(Trifluoromethyl)imidazo[1,2-a]pyrazin-3-yl)pyrimidin-4-yl)pyrrolidin-3-yl)-1H-pyrazol-3-yl)methanol]"
> 5000 nM,10 to 100 nM,"Cc1n[nH]c(C)c1C1CCN(c2ccnc(-c3cnc4cnc(C(F)(F)F)cn34)n2)C1 (centres unmarked) [IV-574, 3-(4-(3-(3,5-Dimethyl-1H-pyrazol-4-yl)pyrrolidin-1-yl)pyrimidin-2-yl)-6-(trifluoromethyl)imidazo[1,2-a]pyrazine]"

IC50 [1],Ki [2],SMILES
500 to 5000 nM,10 to 100 nM,"Cc1n[nH]cc1C1CCN(c2ccnc(-c3cnc4cnc(C(F)(F)F)cn34)n2)C1 (centres unmarked) [IV-575, 3-(4-(3-(3-Methyl-1H-pyrazol-4-yl)pyrrolidin-1-yl)pyrimidin-2-yl)-6-(trifluoromethyl)imidazo[1,2-a]pyrazine]"
500 to 5000 nM,10 to 100 nM,"FC(F)(F)c1cn2c(-c3nccc(N4CCC(c5c[nH]nc5C5CC5)C4)n3)cnc2cn1 (centres unmarked) [IV-576, 3-(4-(3-(3-Cyclopropyl-1H-pyrazol-4-yl)pyrrolidin-1-yl)pyrimidin-2-yl)-6-(trifluoromethyl)imidazo[1,2-a]pyrazine]"
500 to 5000 nM,< 10 nM,"CC1CN(c2cncc(-c3cnc4cnc(C(F)(F)F)cn34)n2)C(C)C(c2cn[nH]c2)N1 (centres unmarked) [IV-577, 3-(6-(2,5-Dimethyl-3-(1H-pyrazol-4-yl)piperazin-1-yl)pyrazin-2-yl)-6-(trifluoromethyl)imidazo[1,2-a]pyrazine]"
500 to 5000 nM,< 10 nM,"CNc1cc(N2CC(C)NC(c3cn[nH]c3)C2C)nc(-c2cnc3cnc(C(F)(F)F)cn23)n1 (centres unmarked) [IV-578, 6-(2,5-Dimethyl-3-(1H-pyrazol-4-yl)piperazin-1-yl)-N-methyl-2-(6-(trifluoromethyl)imidazo[1,2-a]pyrazin-3-yl)pyrimidin-4-amine]"
> 5000 nM,10 to 100 nM,"FC(F)(F)c1cn2c(-c3nccc(N4CCC(C5CCOC5)C4)n3)cnc2cn1 (centres unmarked) [IV-580, 3-(4-(3-(Tetrahydrofuran-3-yl)pyrrolidin-1-yl)pyrimidin-2-yl)-6-(trifluoromethyl)imidazo[1,2-a]pyrazine]"
500 to 5000 nM,10 to 100 nM,"NC(=O)C1CN(c2ccnc(-c3cnc4cnc(C(F)(F)F)cn34)n2)CC(F)(F)C1 (centres unmarked) [IV-582, 5,5-Difluoro-1-(2-(6-(trifluoromethyl)imidazo[1,2-a]pyrazin-3-yl)pyrimidin-4-yl)piperidine-3-carboxamide]"
500 to 5000 nM,< 10 nM,"CC1CN(c2cccc(-c3cnc4cnc(C(F)(F)F)cn34)n2)C(C)C(c2cn[nH]c2)N1 (centres unmarked) [IV-583, 3-(6-(2,5-Dimethyl-3-(1H-pyrazol-4-yl)piperazin-1-yl)pyridin-2-yl)-6-(trifluoromethyl)imidazo[1,2-a]pyrazine]"
500 to 5000 nM,10 to 100 nM,"FC(F)(F)c1cn2c(-c3nccc(N4CCCC(c5cc[nH]n5)C4)n3)cnc2cn1 (centres unmarked) [IV-589, 3-(4-(3-(1H-Pyrazol-3-yl)piperidin-1-yl)pyrimidin-2-yl)-6-(trifluoromethyl)imidazo[1,2-a]pyrazine]"
> 5000 nM,100 to 1000 nM,"CP(C)(=O)C1CC(c2cn[nH]c2)CN(c2ccnc(-c3cnc4cnc(C(F)(F)F)cn34)n2)C1 (centres unmarked) [IV-590, (5-(1H-Pyrazol-4-yl)-1-(2-(6-(trifluoromethyl)imidazo[1,2-a]pyrazin-3-yl)pyrimidin-4-yl)piperidin-3-yl)dimethylphosphine oxide]"
> 5000 nM,100 to 1000 nM,"CP(C)(=O)C1CC(c2cn[nH]c2)CN(c2ccnc(-c3cnc4cnc(C(F)(F)F)cn34)n2)C1 (centres unmarked) [IV-591, (5-(1H-Pyrazol-4-yl)-1-(2-(6-(trifluoromethyl)imidazo[1,2-a]pyrazin-3-yl)pyrimidin-4-yl)piperidin-3-yl)dimethylphosphine oxide]"
500 to 5000 nM,< 10 nM,"COc1cc(N2CC(C)NC(c3cn[nH]c3)C2C)nc(-c2cnc3cnc(C(F)(F)F)cn23)n1 (centres unmarked) [IV-593, 3-(4-(2,5-Dimethyl-3-(1H-pyrazol-4-yl)piperazin-1-yl)-6-methoxypyrimidin-2-yl)-6-(trifluoromethyl)imidazo[1,2-a]pyrazine]"
< 500 nM,< 10 nM,"FC(F)(F)c1cn2c(-c3nccc(N4CCCC(c5cn[nH]c5Cl)C4)n3)cnc2cn1 (centres unmarked) [IV-601, 3-(4-(3-(5-Chloro-1H-pyrazol-4-yl)piperidin-1-yl)pyrimidin-2-yl)-6-(trifluoromethyl)imidazo[1,2-a]pyrazine]"
500 to 5000 nM,100 to 1000 nM,"FC(F)(F)c1cn2c(-c3nccc(N4CCC(C5CCOC5)C4)n3)cnc2cn1 (centres unmarked) [IV-608, 3-(4-(3-(Tetrahydrofuran-3-yl)pyrrolidin-1-yl)pyrimidin-2-yl)-6-(trifluoromethyl)imidazo[1,2-a]pyrazine]"
> 5000 nM,100 to 1000 nM,"FC(F)(F)c1cn2c(-c3nccc(N4CCC(C5CCOC5)C4)n3)cnc2cn1 (centres unmarked) [IV-609, 3-(4-(3-(Tetrahydrofuran-3-yl)pyrrolidin-1-yl)pyrimidin-2-yl)-6-(trifluoromethyl)imidazo[1,2-a]pyrazine]"
500 to 5000 nM,< 10 nM,"NC(=O)C1CCCN(c2ccnc(-c3cnc4cnc(C(F)(F)F)cn34)n2)C1 (centres unmarked) [IV-626, 1-(2-(6-(Trifluoromethyl)imidazo[1,2-a]pyrazin-3-yl)pyrimidin-4-yl)piperidine-3-carboxamide]"
